Assay results taken from US9078444B2, “Isothiazoline derivatives as insecticidal compounds” (Syngenta Participations AG, priority 2011, dated 2015).

Assays:
Type in all cases: in vivo
[1] = system: Thrips tabaci; experiment: Thrips tabaci (onion thrips) sunflower leaf disc test; settings: foliar, 168 h, 200 ppm sprayed on sunflower leaf discs, mixed ages, mortality after 7 days
Procedure: Thrips tabaci (Onion Thrips): Sunflower leaf discs were placed on agar in a 24-well microtiter plate and sprayed with test solutions at an application rate of 200 ppm. After drying, the leaf discs were infested with a thrips population of mixed ages. After an incubation period of 7 days, samples were checked for mortality.

[2] = system: Diabrotica balteata; experiment: Diabrotica balteata (corn root worm) artificial diet test; settings: 120 h, 200 ppm (concentration in well 18 ppm), L2 larvae, larval mortality and growth regulation after 5 days
Procedure: (§1) Diabrotica balteata (Corn Root Worm): A 24-well microtiter plate (MTP) with artificial diet was treated with test solutions at an application rate of 200 ppm (concentration in well 18 ppm) by pipetting. After drying, the MTPs were infested with L2 larvae (6-10 per well). After an incubation period of 5 days, samples were checked for larval mortality and growth regulation.

[3] = system: Tetranychus urticae; experiment: Tetranychus urticae (two-spotted spider mite) bean leaf disc test; settings: foliar, 192 h, 200 ppm sprayed on bean leaf discs, mixed ages, egg, larval and adult mortality 8 days later
Source text: Tetranychus urticae (Two-Spotted Spider Mite): Bean leaf discs on agar in 24-well microtiter plates were sprayed with test solutions at an application rate of 200 ppm. After drying, the leaf discs are infested with mite populations of mixed ages. 8 days later, discs are checked for egg mortality, larval mortality, and adult mortality.

[4] = system: Plutella xylostella; experiment: Plutella xylostella (diamond back moth) artificial diet test; settings: 144 h, 200 ppm (concentration in well 18 ppm), L2 larvae, larval mortality and growth regulation after 6 days
Procedure: as §1, with “Plutella xylostella (Diamond Back Moth):” for “Diabrotica balteata (Corn Root Worm): A”, “(7-12” for “(6-10”, “6” for “5”

[5] = system: Heliothis virescens; experiment: Heliothis virescens (tobacco budworm) egg test on artificial diet; settings: 96 h, 200 ppm (concentration in well 18 ppm), eggs on artificial diet, egg mortality, larval mortality, growth regulation after 4 days
Procedure: Heliothis virescens (Tobacco Budworm): Eggs (0-24 h old) were placed in 24-well microtiter plate on artificial diet and treated with test solutions at an application rate of 200 ppm (concentration in well 18 ppm) by pipetting. After an incubation period of 4 days, samples were checked for egg mortality, larval mortality, and growth regulation.

[6] = system: Spodoptera littoralis; experiment: Spodoptera littoralis (Egyptian cotton leafworm) cotton leaf disc test; settings: foliar, 72 h, 200 ppm sprayed on cotton leaf discs, mortality, feeding behavior, growth regulation 3 days after treatment
Procedure: Spodoptera littoralis (Egyptian Cotton Leafworm): Cotton leaf discs were placed on agar in a 24-well microtiter plate and sprayed with test solutions at an application rate of 200 ppm. After drying, the leaf discs were infested with […]. The samples were checked for mortality, feeding behavior, and growth regulation 3 days after treatment (DAT).

Measured: pest or weed control at 200 ppm

Cc1cc(C2=NSC(c3cc(Cl)cc(Cl)c3)(C(F)(F)F)C2)ccc1C(=O)NC1CSC1 (stereo not drawn) [Compound A22, 4-[5-(3,5-Dichloro-phenyl)-5-trifluoromethyl-4,5-dihydro-isothiazol-3-yl]-2-methyl-N-thietan-3-yl-benzamide]
≥ 80%: all assays above

CSCCNC(=O)c1ccc(C2=NSC(c3cc(Cl)cc(Cl)c3)(C(F)(F)F)C2)cc1C (stereo not drawn) [Compound A26]
≥ 80%: all assays above

Cc1cc(C2=NSC(c3cc(Cl)cc(Cl)c3)(C(F)(F)F)C2)ccc1C(=O)NC1CCSC1 (stereo not drawn) [Compound A27]
≥ 80%: all assays above

Cc1cc(C2=NSC(c3cc(Cl)cc(Cl)c3)(C(F)(F)F)C2)ccc1C(=O)NCC1CSC1 (stereo not drawn) [Compound A28]
≥ 80%: all assays above

Cc1cc(C2=NSC(c3cc(Cl)cc(Cl)c3)(C(F)(F)F)C2)ccc1C(=O)NCC1CCS1 (stereo not drawn) [Compound A30]
≥ 80%: all assays above

Cc1cc(C2=NSC(c3cc(Cl)cc(Cl)c3)(C(F)(F)F)C2)ccc1C(=O)NCC1CCS1(=O)=O (stereo not drawn) [Compound A31]
≥ 80%: all assays above

Cc1cc(C2=NSC(c3cc(Cl)cc(Cl)c3)(C(F)(F)F)C2)ccc1C(=O)NCCF (stereo not drawn) [Compound A34]
≥ 80%: all assays above

C#CCNC(=O)c1ccc(C2=NSC(c3cc(Cl)cc(Cl)c3)(C(F)(F)F)C2)cc1C (stereo not drawn) [Compound A35]
≥ 80%: all assays above

CCCNC(=O)c1ccc(C2=NSC(c3cc(Cl)cc(Cl)c3)(C(F)(F)F)C2)cc1C (stereo not drawn) [Compound A36]
≥ 80%: all assays above

Cc1cc(C2=NSC(c3cc(Cl)cc(Cl)c3)(C(F)(F)F)C2)ccc1C(=O)Nc1ncccn1 (stereo not drawn) [Compound A38]
≥ 80%: all assays above

Cc1cc(C2=NSC(c3cc(Cl)cc(Cl)c3)(C(F)(F)F)C2)ccc1C(=O)NC(C)C (stereo not drawn) [Compound A39]
≥ 80%: all assays above

Cc1cc(C2=NSC(c3cc(Cl)cc(Cl)c3)(C(F)(F)F)C2)ccc1C(=O)NCC1CCC1 (stereo not drawn) [Compound A40]
≥ 80%: all assays above

Cc1cc(C2=NSC(c3cc(Cl)cc(Cl)c3)(C(F)(F)F)C2)ccc1C(=O)NCC(F)F (stereo not drawn) [Compound A42]
≥ 80%: all assays above

Cc1cc(C2=NSC(c3cc(Cl)cc(Cl)c3)(C(F)(F)F)C2)ccc1C(=O)Nc1cncnc1 (stereo not drawn) [Compound A48]
≥ 80%: all assays above

Cc1cc(C2=NSC(c3cc(Cl)cc(Cl)c3)(C(F)(F)F)C2)ccc1C(=O)NC1CCc2ccccc21 (stereo not drawn) [Compound A50]
≥ 80%: all assays above

COCCNC(=O)c1ccc(C2=NSC(c3cc(Cl)cc(Cl)c3)(C(F)(F)F)C2)cc1C (stereo not drawn) [Compound A51]
≥ 80%: all assays above

Cc1cc(C2=NSC(c3cc(Cl)cc(Cl)c3)(C(F)(F)F)C2)ccc1C(=O)NC1CC1 (stereo not drawn) [Compound A52]
≥ 80%: all assays above

Cc1cc(C2=NSC(c3cc(Cl)cc(Cl)c3)(C(F)(F)F)C2)ccc1C(=O)NCCC1OCCO1 (stereo not drawn) [Compound A54]
≥ 80%: all assays above

Cc1cc(C2=NSC(c3cc(Cl)cc(Cl)c3)(C(F)(F)F)C2)ccc1C(=O)Nc1ccccc1F (stereo not drawn) [Compound A60]
≥ 80%: all assays above

CNC(=O)c1ccc(C2=NSC(c3cc(Cl)cc(Cl)c3)(C(F)(F)F)C2)cc1C (stereo not drawn) [Compound A62]
≥ 80%: all assays above

C=CCNC(=O)c1ccc(C2=NSC(c3cc(Cl)cc(Cl)c3)(C(F)(F)F)C2)cc1C (stereo not drawn) [Compound A63]
≥ 80%: all assays above

CCN1OC[C@@H](NC(=O)c2ccc(C3=NS[C@@](c4cc(Cl)cc(Cl)c4)(C(F)(F)F)C3)cc2C)C1=O [Compound A78, 4-[(5S)-5-(3,5-dichlorophenyl)-5-(trifluoromethyl)-4H-isothiazol-3-yl]-N-[(4R)-2-ethyl-3-oxo-isoxazolidin-4-yl]-2-methyl-benzamide]
≥ 80%: all assays above

Cc1cc(C2=NS[C@@](c3cc(Cl)cc(Cl)c3)(C(F)(F)F)C2)ccc1C(=O)N[C@@H]1CON(CC(F)(F)F)C1=O [Compound A79, 4-[(5S)-5-(3,5-dichlorophenyl)-5-(trifluoromethyl)-4H-isothiazol-3-yl]-2-methyl-N-[(4R)-3-oxo-2-(2,2,2-trifluoroethyl)isoxazolidin-4-yl]benzamide]
≥ 80%: all assays above
